Measurements: US5936097A, “4,9-ethano-benzo(F)isoindole derivatives as farnesyl transferase inhibitors” (Rhone-Poulenc Rorer, S.A., priority 1995, dated 1999)
Where a name gives a salt, the structure may show the parent alone.

These compounds were tested against T1, human farnesyl transferase (Homo sapiens, UniProt P49354+P49356) (assay: inhibition of farnesyl transferase ((3H) farnesyl transfer from (3H) FPP to p21 H-ras)). Details: not given.
T1 construct: human farnesyl transferase purified from THP1 cell cultures; endogenous in cells; host or cells: THP1 cell cultures (enzyme purified from the cells)
Assay type: biochemical
Method: Farnesyl transferase activity is determined by the amount of (^3 H) farnesyl transferred from (^3 H) farnesylpyrophosphate [(^3 H) FPP] to the p21 H-ras protein. The standard reaction mixture is composed, for a final volume of […], of 50 mM Tris-HCl, 5 mM MgCl2, 5 mM dithiotreitol, 0.2% octyl b-D-glucopyranoside, 200 picomol p21 H-ras, 4.5 picomol (^3 H) FPP (activity 61000 dpm/picomol).
Reaction is initiated by adding approximately 5 ng of human farnesyl transferase purified from THP1 cell cultures. After incubation for 20 minutes at 37° C. in a microtitration plate containing 96 1-cm^3 wells per plate (Titer Plate®, Beckman), the reaction is stopped by adding 0.4 cm^3 of 0.1% SDS in methanol at 0° C. The mixture is then treated with 0.4 cm^3 of 30% trichloroacetic® acid (TCA) in methanol. The plates are left in ice for 1 hour. The precipitated contents are then retained on Filtermat®, Pharmacia), glass® fibre membranes with the filtration unit (Combi Cell Harvester®, Skatron), and rinsed with 6% trichloroacetic acid in distilled water. The membranes are dried in a microwave oven, then impregnated with scintillation medium by melting of Meltilex® (Pharmacia) under hot air, and lastly counted in cpm in a b-Plate counter® (LKB). Each test is repeated 3 times.
The unit of activity is defined as 1 picomole of (^3 H) FPP transferred to p21 H-ras in 20 minutes.
The percentage inhibition values are obtained by comparison of the tests with and without inhibitor after deduction of blanks, the IC50 values being measured on the basis of the inhibitions obtained with 9 different concentrations using Enzfitter® or Grafit® software.
Compound COc1ccccc1C(=O)C(=O)N1C[C@@H]2[C@]3(c4ccccc4)CC[C@@H](c4ccccc43)[C@]2(C(=O)O)C1 (racemic) [Example 42, (3aRS,4SR,9SR,9aRS)-4,9-ethano-2-[2-(2-methoxyphenyl)-2-oxoacetyl]-9-phenyl-2,3,3a,4,9,9a-hexahydro-1H-benzo[f]isoindole-3a-carboxylic acid] has an IC50 of 8450 nM. COc1ccccc1[C@@H](C)C(=O)N1CC2C3(c4ccccc4)CCC(c4ccccc43)C2(C(=O)O)C1 (single isomer, unassigned) [Example 33] showed an IC50 of 2030 nM. Work on COc1ccccc1CC(=S)N1C[C@@H]2[C@]3(c4ccccc4)CC[C@@H](c4ccccc43)[C@]2(C(=O)O)C1 (relative stereo) [Example 65, (3aRS,4SR,9SR,9aRS)-4,9-Ethano-2-(2-methoxyphenyl)thioacetyl-9-phenyl-2,3,3a,4,9,9a-hexahydro-1H-benzo[f]isoindole-3a-carboxylic acid] yielded an IC50 of 410 nM.

Same assay, conditions: human farnesyl transferase purified from THP1 cell cultures; p21 H-ras substrate; 20 minutes at 37° C.; 9 concentrations; read-out: in vitro inhibitory activity IC50
Compound CCOC(=O)CC(=O)N[C@]12CN(C(=O)Cc3ccccc3OC)C[C@H]1[C@@]1(c3ccccc3)CC[C@@H]2c2ccccc21 (relative stereo) [Example 15, (3aRS, 4SR, 9SR, 9aRS)-4,9-ethano-3a-ethoxycarbonylacetylamino-2-(2-methoxyphenyl)acetyl-9-phenyl-2,3,3a,4,9,9a-hexahydro-1H-benzo[f]isoindole] has an IC50 of 9000 nM. Compound O=C(Cc1ccccc1OCCCN1CCCC1)N1C[C@H]2[C@@]3(c4ccccc4)CC[C@H](c4ccccc43)[C@@]2(C(=O)O)C1 (relative stereo) [Example 32, hydrochloride of (3aRS, 4SR, 9SR, 9aRS)-4,9-ethano-2-[2-(3-pyrrolidinylpropyl)oxyphenyl]-acetyl-9-phenyl-2,3,3a,4,9,9a-hexahydro-1H-benzo[f]isoindole-3a-carboxylic acid] has an IC50 of 1330 nM. With COc1ccccc1CC(=O)N1C[C@H]2[C@@]3(c4ccccc4)CC[C@H](c4ccccc43)[C@@]2(NC(=O)CC(=O)O)C1 (relative stereo) [Example 16, (3aRS, 4SR, 9SR, 9aRS)-4,9-ethano-3a-carboxylacetylamino-2-(2-methoxyphenyl)acetyl-9-phenyl-2,3,3a,4,9,9a-hexahydro-1H-benzo[f]isoindole] the IC50 was 3030 nM. For COc1ccccc1C1(C(=O)N2C[C@@H]3[C@]4(c5ccccc5)CC[C@@H](c5ccccc54)[C@]3(C(=O)O)C2)CC1 (racemic) [Example 41, (3aRS,4SR,9SR,9aRS)-4,9-ethano-2-[1-(2-methoxyphenyl)-cyclopropan-1-oyl]-9-phenyl-2,3,3a,4,9,9a-hexa-hydro-1H-benzo[f]isoindole-3a-carboxylic acid], the IC50 was 1100 nM. For COc1ccccc1CC(=O)N1C[C@@H]2[C@]3(c4ccccc4)CC[C@@H](c4ccccc43)[C@]2(C(=O)NN)C1 (relative stereo) [Example 58, hydrazide of (3aRS,4SR,9SR,9aRS)-4,9-ethano-2-(2-methoxyphenyl)acetyl-9-phenyl-2,3,3a,4,9,9a-hexahydro-1H-benzo[f]isoindole-3a-carboxylic acid], the IC50 was 5050 nM. With COc1ccccc1CC(=O)N1C[C@H]2[C@@]3(c4ccccc4)CC[C@H](c4ccccc43)[C@@]2(C(=O)NCC(=O)O)C1 [Example 48, N-[4,9-ethano-2-(2-methoxyphenyl)acetyl-9-phenyl-2,3,3a(S),4(R),9(R),9a(S)-hexahydro-1H-benzo[f]isoindol-3a-yl]carbonylglycine] the IC50 was 740 nM. Compound C=C(C(=O)N1C[C@H]2[C@@]3(c4ccccc4)CC[C@H](c4ccccc43)[C@@]2(C(=O)NCc2cscn2)C1)c1ccccc1OC [Example 96, (3aS,4R,9R,9aS)-N-[(4-thiazolyl)-methyl]-4,9-ethano-2-[(2-methoxyphenyl)prop-2-en-1-oyl]-9-phenyl-2,3,3a,4,9,9a-hexahydro-1H-benzo[f]isoindole-3a-carboxamide] has an IC50 of 360 nM. CONC(=O)[C@@]12CN(C(=O)Cc3ccccc3OC)C[C@@H]1[C@]1(c3ccccc3)CC[C@H]2c2ccccc21 (relative stereo) [Example 56, (3aRS,4SR,9SR,9aRS)-N-methoxy-4,9-ethano-2-(2-methoxyphenyl)acetyl-9-phenyl-2,3,3a,4,9,9a-hexahydro-1H-benzo[f]isoindole-3a-carboxamide] gave an IC50 of 8400 nM. For C=C(C(=O)N1C[C@@H]2[C@]3(c4ccccc4)CC[C@@H](c4ccccc43)[C@]2(C(=O)NOC)C1)c1ccccc1OC (racemic) [Example 44, (3aRS,4SR,9SR,9aRS)-N-methoxy-4,9-ethano-2-[2-(2-methoxyphenyl)prop-2-en-1-oyl]-9-phenyl-2,3,3a,4,9,9a-hexahydro-1H-benzo[f]isoindole-3a-carboxamide], the IC50 was 110 nM. C=C(C(=O)N1C[C@H]2[C@@]3(c4ccccc4)CC[C@H](c4ccccc43)[C@@]2(C(=O)N[C@H](C)c2cccc3ccccc23)C1)c1ccccc1OC [Example 83, (3aS,4R,9R,9aS)-N-[(R)-1-(1-naphthyl)ethyl]-4,9-ethano-2-[(2-methoxyphenyl)prop-2-en-1-oyl]-9-phenyl-2,3,3a,4,9,9a-hexahydro-1H-benzo[f]isoindole-3a-carboxamide] showed an IC50 of 5150 nM. Work on COc1ccccc1CC(=O)N1C[C@@H]2[C@]3(c4ccccc4)CC[C@@H](c4ccccc43)[C@]2(C(=O)N(C)C)C1 (relative stereo) [Example 55, (3aRS,4SR,9SR,9aRS)-N,N-dimethyl-4,9-ethano-2-(2-methoxyphenyl)acetyl-9-phenyl-2,3,3a,4,9,9a-hexahydro-1H-benzo[f]isoindole-3a-carboxamide] yielded an IC50 of 3900 nM. Work on CCCOc1ccccc1CC(=O)N1C[C@H]2[C@@]3(c4ccccc4)CC[C@H](c4ccccc43)[C@@]2(C(=O)O)C1 (relative stereo) [Example 80, (3aRS,4SR,9SR,9aRS)-4,9-ethano-9-phenyl-2-(2-n-propoxyphenyl)acetyl-2,3,3a,4,9,9a-hexahydro-1H-benzo[f]isoindole-3a-carboxylic acid] yielded an IC50 of 800 nM. Work on COc1ccccc1CC(=O)N1CC2C3(c4ccccc4)CCC(c4ccccc43)C2(C(=O)N[C@@H](CS)C(=O)O)C1 (stereo partly drawn) [Example 53, N-[(3aRS,4SR,9SR,9aRS)-4,9-ethano-2-(2-methoxyphenyl)acetyl-9-phenyl-2,3,3a,4,9,9a-hexahydro-1H-benzo[f]isoindol-3a-yl]carbonyl-L-cysteine] yielded an IC50 of 590 nM. Compound COc1ccccc1CC(=O)N1C[C@H]2[C@@]3(c4ccccc4)CC[C@H](c4ccccc43)[C@@]2(C(=O)N[C@H](C)c2ccccc2)C1 [Example 57, N-[(R)-1-phenylethyl]-4,9-ethano-2-(2-methoxyphenyl)acetyl-9-phenyl-2,3,3a(S),4(R),9(R),9a(S)-hexahydro-1H-benzo[f]isoindole-3a-carboxamide] has an IC50 of 860 nM. Compound COc1ccccc1CC(=O)N1C[C@H]2[C@@]3(c4ccccc4)CC[C@H](c4ccccc43)[C@@]2(NC(=O)CCC(=O)O)C1 (relative stereo) [Example 17, (3aRS, 4SR, 9SR, 9aRS)-4,9-ethano-3a-(3-carboxypropionyl)amino-2-(2-methoxyphenyl)acetyl-9-phenyl-2,3,3a,4,9,9a-hexahydro-1H-benzo[f]isoindole] has an IC50 of 4900 nM. COc1ccc2c(c1)[C@]1(c3ccccc3)CC[C@H]2[C@@]2(C(=O)O)CN(C(=O)Cc3ccccc3OC)C[C@@H]12 (relative stereo) [Example 70, (3aRS,4SR,9SR,9aRS)-4,9-ethano-7-methoxy-2-(2-methoxy-phenyl)acetyl-9-phenyl-2,3,3a,4,9,9a-hexahydro-1H-benzo[f]isoindole-3a-carboxylic acid] gave an IC50 of 2850 nM. With COc1ccccc1CC(=O)N1C[C@H]2[C@@]3(c4ccccc4)CC[C@H](c4ccccc43)[C@@]2(CSCCC(=O)O)C1 (relative stereo) [Example 26, 3-[(3aRS, 4SR, 9SR, 9aRS)-4,9-ethano-2-(2-methoxyphenyl)acetyl-9-phenyl-2,3,3a,4,9,9a-hexahydro-1H-benzo[f]isoindol-3a-yl]methylthiopropanoic acid] the IC50 was 2300 nM. With COc1ccccc1CC(=O)N1C[C@@H]2[C@]3(c4ccccc4)CC[C@@H](c4ccccc43)[C@]2(C(=O)NO)C1 (racemic) [Example 46, (3aRS,4SR,9SR,9aRS)-4,9-ethano-2-(2-methoxyphenylacetyl)-9-phenyl-2,3,3a,4,9,9a-hexahydro-1H-benzo[f]isoindole-3a-carbohydroxamic acid] the IC50 was 1250 nM. Compound COc1ccccc1CC(=O)N1C[C@H]2[C@@]3(c4ccccc4)CC[C@H](c4ccccc43)[C@@]2(C[n+]2ccccc2)C1 (relative stereo) [Example 18, N-[(3aRS, 4SR, 9SR, 9aRS)-4,9-ethano-2-(2-methoxyphenyl)acetyl-9-phenyl-2,3,3a,4,9,9a-hexahydro-1H-benzo[f]isoindolyl-3a-methyl]pyridinium trifluoromethanesulphonate] has an IC50 of 10000 nM.
